Activity calls are given as the source filed them. The calls are words filed in the database; no cut-off is given here.
Key:
[1] = target: T1, Acetylcholinesterase (Rattus norvegicus) (UniProt P37136); experiment: Reversible inhibition of rat cortical AChE up to 8 mins
T1 sequence (whole entry): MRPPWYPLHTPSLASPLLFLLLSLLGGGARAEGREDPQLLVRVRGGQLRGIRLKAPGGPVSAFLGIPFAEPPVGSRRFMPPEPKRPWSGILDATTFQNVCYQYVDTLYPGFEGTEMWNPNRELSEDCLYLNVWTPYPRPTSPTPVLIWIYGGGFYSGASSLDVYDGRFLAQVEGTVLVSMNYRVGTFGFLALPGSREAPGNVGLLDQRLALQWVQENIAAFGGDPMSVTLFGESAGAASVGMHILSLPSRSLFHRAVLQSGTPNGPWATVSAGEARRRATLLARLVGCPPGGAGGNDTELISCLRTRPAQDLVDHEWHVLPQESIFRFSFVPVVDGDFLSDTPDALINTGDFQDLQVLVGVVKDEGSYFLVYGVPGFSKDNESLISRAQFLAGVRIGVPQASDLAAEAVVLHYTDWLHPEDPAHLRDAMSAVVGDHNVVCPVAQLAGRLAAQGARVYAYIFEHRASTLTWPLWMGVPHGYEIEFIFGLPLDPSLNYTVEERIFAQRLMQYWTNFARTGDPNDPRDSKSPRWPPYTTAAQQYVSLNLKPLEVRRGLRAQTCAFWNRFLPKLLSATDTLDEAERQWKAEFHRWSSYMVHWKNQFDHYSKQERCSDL

[2] = target: T1, Acetylcholinesterase (Rattus norvegicus); experiment: Mixed-type competitive inhibition of rat cortical AChE by Lineweaver-Burke plot analysis
Acetylcholinesterase [3] = target: Acetylcholinesterase (Homo sapiens, UniProt P22303); experiment: Inhibition of AChE (unknown origin) using acetylthiocholine iodide as substrate after 8 mins by Ellman's spectrophotometric method
Acetylcholinesterase (Homo sapiens, UniProt P22303), sequence (P22303 whole entry): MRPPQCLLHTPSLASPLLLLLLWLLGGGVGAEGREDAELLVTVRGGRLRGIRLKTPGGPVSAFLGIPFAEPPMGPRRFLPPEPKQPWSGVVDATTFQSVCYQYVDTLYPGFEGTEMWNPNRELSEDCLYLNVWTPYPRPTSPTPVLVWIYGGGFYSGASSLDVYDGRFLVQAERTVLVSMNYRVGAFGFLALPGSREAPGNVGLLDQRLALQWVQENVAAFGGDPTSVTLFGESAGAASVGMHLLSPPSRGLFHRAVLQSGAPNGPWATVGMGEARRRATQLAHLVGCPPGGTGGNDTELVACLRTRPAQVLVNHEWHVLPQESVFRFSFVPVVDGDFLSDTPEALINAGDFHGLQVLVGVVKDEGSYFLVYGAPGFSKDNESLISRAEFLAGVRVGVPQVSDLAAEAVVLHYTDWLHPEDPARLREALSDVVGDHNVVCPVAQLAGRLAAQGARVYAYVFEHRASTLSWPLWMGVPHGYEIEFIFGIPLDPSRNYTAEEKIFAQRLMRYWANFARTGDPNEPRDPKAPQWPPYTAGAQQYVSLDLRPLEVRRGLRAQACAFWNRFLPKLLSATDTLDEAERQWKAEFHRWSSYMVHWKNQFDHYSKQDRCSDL

[4] = Neuroprotective activity in human SH-SY5Y cells assessed as protection against H2O2-induced reduction of cell viability at 100 uM treated 2 hrs before H2O2 addition measured after 24 hrs by MTT assay relative to control; type: functional, cell-based
[5] = Neuroprotective activity in human SH-SY5Y cells assessed as protection against H2O2-induced reduction of cell viability at 100 uM treated 2 hrs before H2O2 addition measured after 24 hrs by MTT assay relative to H2O2 treated control; type: functional, cell-based
[6] = Neuroprotective activity in human SH-SY5Y cells assessed as protection against H2O2-induced reduction of cell viability at 10 uM treated 2 hrs before H2O2 addition measured after 24 hrs by MTT assay relative to H2O2 treated control; type: functional, cell-based
[7] = Neuroprotective activity in human SH-SY5Y cells assessed as protection against H2O2-induced reduction of cell viability at 10 uM treated 2 hrs before H2O2 addition measured after 24 hrs by MTT assay relative to control; type: functional, cell-based
[8] = Neuroprotective activity in human SH-SY5Y cells assessed as protection against H2O2-induced reduction of cell viability at 1 uM treated 2 hrs before H2O2 addition measured after 24 hrs by MTT assay relative to control; type: functional, cell-based
Acetylcholinesterase [9] = target: T2, Acetylcholinesterase (Mus musculus, UniProt P21836); experiment: Inhibition of mouse skeletal AChE
T2 sequence (P21836 whole entry): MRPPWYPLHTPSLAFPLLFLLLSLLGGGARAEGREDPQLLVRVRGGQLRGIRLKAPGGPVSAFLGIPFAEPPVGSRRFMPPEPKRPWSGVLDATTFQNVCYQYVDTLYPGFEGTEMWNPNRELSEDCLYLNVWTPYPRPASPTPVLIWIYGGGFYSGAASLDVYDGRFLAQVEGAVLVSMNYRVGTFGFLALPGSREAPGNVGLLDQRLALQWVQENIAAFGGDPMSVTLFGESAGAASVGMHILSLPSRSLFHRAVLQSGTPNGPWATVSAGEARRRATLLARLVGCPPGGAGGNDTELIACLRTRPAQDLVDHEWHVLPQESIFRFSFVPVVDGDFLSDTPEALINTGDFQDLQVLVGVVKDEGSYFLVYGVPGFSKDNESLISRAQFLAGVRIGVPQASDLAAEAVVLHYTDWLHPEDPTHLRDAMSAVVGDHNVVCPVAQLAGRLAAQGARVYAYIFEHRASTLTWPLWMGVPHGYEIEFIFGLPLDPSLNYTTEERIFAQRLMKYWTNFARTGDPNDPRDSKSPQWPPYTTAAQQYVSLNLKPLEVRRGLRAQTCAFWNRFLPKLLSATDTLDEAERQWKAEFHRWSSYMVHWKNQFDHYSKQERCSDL

SMILES: C=C[C@@H]1[C@H]2C=C(C)C[C@]1(N)c1ccc(=O)[nH]c1C2
- inhibition [1]: Active
- inhibition [2]: Active

SMILES: CC1=C[C@H]2Cc3[nH]c(=O)ccc3[C@@]3(C1)[C@@H]2[C@H](Cl)CCN3C
- inhibition [1]: Active
- IC50 (Acetylcholinesterase [3]): 20.9 µM
- inhibition [2]: Active

SMILES: CC(=O)N[C@@H](CS)C(=O)O
- Activity [4]: 55.8%
- Activity [5]: 12.3%

SMILES: C=C[C@@H]1[C@@H]2Cc3[nH]c(=O)ccc3[C@@]1(N)C[C@H](C)C2
- Activity [6]: 12%
- Activity [7]: 55.5%
- Activity [8]: 49.1%

SMILES: C=C[C@@H]1[C@H]2C=C(C)C[C@]1(NC)c1ccc(=O)[nH]c1C2
- inhibition [1]: Active
- IC50 (Acetylcholinesterase [3]): 15 µM
- IC50 (Acetylcholinesterase [9]): 2 µM
- inhibition [2]: Active

SMILES: CC1=C[C@H]2Cc3[nH]c(=O)ccc3[C@@]3(C1)[C@@H]2[C@H](C)CN3C
- inhibition [1]: Active
- IC50 (Acetylcholinesterase [3]): 12.1 µM

Source: ChEMBL document CHEMBL2407087, “Casuarinines A-J, lycodine-type alkaloids from Lycopodiastrum casuarinoides” (J Nat Prod, 2013)
